In patent publication US12612412B2, “Antiviral heterocyclic compounds” (Enanta Pharmaceuticals, Inc., priority 2021, dated 2026):

How the values were obtained:
[1] = tested on: genotype A, "Long" strain RSV; experiment: RSV-A assay (CPE protection in Hep-2 cells, ATPlite readout); assay type: cell-based, Human respiratory syncytial virus (HRSV); conditions: human respiratory syncytial virus, genotype A “Long” strain RSV, MOI 0.1, CPE protection, read-out: Human RSV-A (“Long”)
Summary of the method: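 Protection from RSV-induced cytopathic effect measured by ATP content (ATPlite) after 5-day culture. Infection used genotype A Long virus at MOI 0.1 on 8,000 Hep-2 cells per well, with compound serially diluted 2-fold; values are EC50.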

[2] = tested on: recombinant HMPV CAN97-83 containing eGFP (MPV-GFP1); experiment: HMPV antiviral assay Method-A (MPV-GFP1 eGFP fluorescence in Vero E6 cells); assay type: cell-based, Human metapneumovirus (HMPV); conditions: human metapneumovirus, Vero C1008, 120 h, read-out: HMPV EC50
Method: HMPV antiviral activity was evaluated using a recombinant version of HMPV CAN97-83 engineered to contain the coding sequence for enhanced green fluorescence protein (eGFP) in the 3′ end of the virus genome (MPV-GFP1, ViraTree). Vero E6 cells ([…]) were seeded at a density of 12,000 cells/100 μL/well into 96-well cell plates one day prior to the assay. On the day of screening, the cell culture medium was aspirated from the wells and cells were washed twice with serum-free Eagle's Modified Essential Medium (EMEM, ATCC #) containing 1% penicillin-streptomycin (Invitrogen) (SF-EMEM). Cell washes were performed by dispensing 100 μL SF-EMEM per well and immediately aspirating the wash medium from the well. Following the second wash step, serum-free OptiMEM (Invitrogen, Cat No.) (SF-OptiMEM) containing 0.5 μg/mL TPCK-Trypsin (VENDOR) and 1% penicillin-streptomycin was added to the cells at 50 μL/well. Compounds were added into the 96-well plates using a JANUS automated liquid handling system (VENDOR). Compounds were initially diluted 1:50 into an intermediate 96-well plate containing SF-OptiMEM prior to transfer to the assay plate (25 μL/well). Each of the test compounds were tested in duplicate wells at final concentrations starting from 8 μM or 2 μM using ½ stepwise dilutions for a total of 8 points. Virus infection was performed by preparing a working stock of MPV-GFP1 at a multiplicity of infection (MOI) equal to 0.05/25 μL and aliquoting 25 μL of virus inoculum to the compound and positive control wells. SF-OptiMEM was added (25 μL/well) to the appropriate wells to serve as a virus-free negative control for the assay. The final DMSO concentration of all wells is 0.5%. Plates were incubated at 32° C., 5% CO2 for 5 days.
After 5 days incubation, eGFP fluorescence intensity was measured at (X) […] wavelength using a Spectramax i3× plate reader (VENDOR). Percent viral inhibition was calculated using the following equation: y=[…]
Where XQ is the fluorescence intensity measured in a well containing recombinant MPV-GFP1-infected, compound-treated cells and XP is the average fluorescence intensity measured in the wells containing untreated cells infected with recombinant virus. EC50 values were then calculated by non-linear regression using a four parameter curve logistic equation. The curve fit model employed was XLFit Dose Response One Site Model 200: y=(A+(B/(1+((x/C)^D))))
Where A is the minimum y value, B is the maximum y value, C is the log EC50 value, and D is the slope factor. […] EC50 ranges are as follows: A<0.5 μM; B>0.5 μM.

Work on COc1cc(C(=O)NC[C@](O)(c2cc3c(c(-c4ccc(F)cc4)n2)OC[C@]3(CO)C(N)=O)C(F)(F)F)cc2cc(C)c(C)nc12 [Example 167] yielded an EC50 [1] of under 200 nM and an EC50 [2] of over 500 nM.
In the case of CCNc1nc2ccc(C(=O)NC[C@](O)(c3cc4c(c(-c5ccc(F)cc5)n3)OC[C@]4(C)C(N)=O)C(F)(F)F)cc2s1 [Example 139], the EC50 [1] is reported as under 200 nM and the EC50 [2] is reported as over 500 nM.
CC(C)[C@H](N)C(=O)Nc1nc2ccc(C(=O)NC[C@](O)(c3cc4c(c(-c5ccc(F)cc5)n3)OC[C@]4(C)C(N)=O)C(F)(F)F)cc2s1 [Example 155] showed an EC50 [1] of under 200 nM and an EC50 [2] of over 500 nM.
COc1cc(C(=O)NC[C@](O)(c2cc3c(c(-c4ccc(F)c(F)c4)n2)OC[C@]3(C)C(N)=O)C(F)(F)F)cc2cc(C(F)(F)F)cnc12 [Example 315] was tested, and the EC50 [1] was under 200 nM and the EC50 [2] was under 500 nM.
CC[C@]1(C(N)=O)COc2c1cc([C@@](O)(CNC(=O)c1cc(OC3CC3)c3ncccc3c1)C(F)(F)F)nc2-c1ccc(F)cc1 [Example 235] gave an EC50 [1] of under 200 nM and an EC50 [2] of under 500 nM.
C[C@]1(C(N)=O)COc2c1cc([C@@](O)(CNC(=O)c1ccc3[nH]c(=O)sc3c1)C(F)(F)F)nc2-c1ccc(F)cc1 [Example 129] gave an EC50 [1] of under 200 nM and an EC50 [2] of over 500 nM.
Cc1cn2cc(C(=O)NC[C@](O)(c3cc4c(c(-c5ccc(F)cc5)n3)OC[C@]4(C)C(N)=O)C(F)(F)F)cc(Cl)c2n1 [Example 55] was tested, and the EC50 [1] was under 200 nM and the EC50 [2] was under 500 nM.
Compound COc1cc(C(=O)NC[C@](O)(c2cc3c(c(-c4ccc(F)c(Cl)c4)n2)OC[C@]3(C)C(N)=O)C(F)(F)F)cc2cn(C3CCC3)nc12 [Example 324] has an EC50 [1] of under 200 nM and an EC50 [2] of under 500 nM.
In the case of C[C@]1(C(N)=O)COc2c1cc([C@@](O)(CNC(=O)c1cc(C3CC3)c3nn(C(F)F)cc3c1)C(F)(F)F)nc2-c1ccc(F)cc1 [Example 47], the EC50 [1] is reported as under 200 nM and the EC50 [2] is reported as under 500 nM.
C[C@]1(C(N)=O)COc2c1cc([C@@](O)(CNC(=O)c1cc(F)c3nc(N)sc3c1)C(F)(F)F)nc2-c1ccc(Cl)cc1 [Example 307] showed an EC50 [1] of under 200 nM and an EC50 [2] of under 500 nM.
In the case of Cc1cc2cc(C(=O)NC[C@](O)(c3cc4c(c(-c5ccc(F)c(Cl)c5)n3)OC[C@]4(C)C(N)=O)C(F)(F)F)cc(Cl)c2nc1C [Example 182], the EC50 [1] is reported as under 200 nM and the EC50 [2] is reported as under 500 nM.
For Cc1cc2cc(C(=O)NC[C@](O)(c3cc4c(c(-c5ccc(F)cc5)n3)OC[C@]4(C)C(N)=O)C(F)(F)F)cc(Cl)c2nc1C [Example 177], the EC50 [1] was under 200 nM and the EC50 [2] was under 500 nM.
With COc1cc(C(=O)NC[C@](O)(c2cc3c(c(-c4ccc(F)cc4)n2)OC[C@]3(C)C(N)=O)C(F)(F)F)cn2cc(C(F)(F)F)nc12 [Example 49] the EC50 [1] was under 200 nM and the EC50 [2] was over 500 nM.
Compound COc1cc(C(=O)NC[C@](O)(c2cc3c(c(-c4ccc(F)cc4)n2)OC[C@]3(C)C(N)=O)C(F)(F)F)cc2cn[nH]c12 [Example 108] has an EC50 [1] of under 200 nM and an EC50 [2] of over 500 nM.
C[C@]1(C(N)=O)COc2c1cc([C@@](O)(CNC(=O)c1ccc3nc(C4CC4)cn3c1)C(F)(F)F)nc2-c1ccc(F)c(Cl)c1 [Example 60] showed an EC50 [1] of under 200 nM and an EC50 [2] of under 500 nM.
In the case of C[C@]1(C(N)=O)COc2c1cc([C@@](O)(CNC(=O)c1ccc3nc(C4CC4)cn3c1)C1CC1)nc2-c1ccc(F)cc1 [Example 53], the EC50 [1] is reported as under 200 nM and the EC50 [2] is reported as under 500 nM.
Work on [2H]C([2H])([2H])c1cc2cc(C(=O)NC[C@](O)(c3cc4c(c(-c5ccc(F)cc5)n3)OC[C@]4(C)C(N)=O)C(F)(F)F)cc(OC)c2nc1C [Example 143] yielded an EC50 [1] of under 200 nM and an EC50 [2] of under 500 nM.
For C[C@]1(C(N)=O)COc2c1cc([C@@](O)(CNC(=O)c1cc(F)c3nc(N)sc3c1)C(F)(F)F)nc2-c1ccc(F)c(F)c1 [Example 308], the EC50 [1] was under 200 nM and the EC50 [2] was under 500 nM.
For Cc1cc2cc(C(=O)NC[C@](O)(c3cc4c(c(-c5ccc(F)cc5)n3)OC[C@]4(C)C(N)=O)C(F)(F)F)cc(OC3CC3)c2nc1C [Example 178], the EC50 [1] was under 200 nM and the EC50 [2] was over 500 nM.
With C[C@]1(C(N)=O)COc2c1cc([C@@](O)(CNC(=O)c1cc(NC(=O)NC3CC3)c3ncc(Cl)cc3c1)C(F)(F)F)nc2-c1ccc(F)c(Cl)c1 [Example 220] the EC50 [1] was under 200 nM and the EC50 [2] was over 500 nM.
[2H]C([2H])([2H])NC(=O)Nc1cc(C(=O)NC[C@](O)(c2cc3c(c(-c4ccc(F)cc4)n2)OC[C@]3(C)C(N)=O)C(F)(F)F)cc2cc(C)cnc12 [Example 329] showed an EC50 [1] of under 200 nM and an EC50 [2] of under 500 nM.
In the case of COc1cc(C(=O)NC[C@](O)(c2cc3c(c(-c4ccc(F)cc4)n2)OC[C@@]3(C(N)=O)C2CC2)C(F)(F)F)cc2cc(C(F)(F)F)cnc12 [Example 265], the EC50 [1] is reported as under 200 nM and the EC50 [2] is reported as under 500 nM.
COc1cc(C(=O)NC[C@](O)(c2cc3c(c(-c4ccc(F)c(Cl)c4)n2)OC[C@]3(C)C(N)=O)C(F)(F)F)cc2cc(C)nnc12 [Example 10] was tested, and the EC50 [1] was under 200 nM and the EC50 [2] was under 500 nM.
In the case of CC(C)[C@@H](N)C(=O)Nc1nc2ccc(C(=O)NC[C@](O)(c3cc4c(c(-c5ccc(F)cc5)n3)OC[C@]4(C)C(N)=O)C(F)(F)F)cc2s1 [Example 156], the EC50 [1] is reported as under 200 nM and the EC50 [2] is reported as over 500 nM.
Cc1cnc2c(Nc3ccc(O)nn3)cc(C(=O)NC[C@](O)(c3cc4c(c(-c5ccc(F)cc5)n3)OC[C@]4(C)C(N)=O)C(F)(F)F)cc2c1 [Example 120] showed an EC50 [1] of under 200 nM and an EC50 [2] of over 500 nM.
Work on Cc1cc2cc(C(=O)NC[C@](O)(c3cc4c(c(-c5ccc(F)cc5)n3)OC[C@]4(C)C(N)=O)C(F)(F)F)cc(O)c2nc1C [Example 74] yielded an EC50 [1] of under 200 nM and an EC50 [2] of under 500 nM.
With COc1cc(C(=O)NC[C@](O)(c2cc3c(c(-c4ccc(Cl)cc4)n2)OC[C@]3(C)C(N)=O)C(F)(F)F)cc2cc(C(F)(F)F)cnc12 [Example 314] the EC50 [1] was under 200 nM and the EC50 [2] was under 500 nM.
With Cc1nc2c(Cl)cc(C(=O)NC[C@](O)(c3cc4c(c(-c5ccc(F)cc5)n3)OC[C@]4(C)C(N)=O)C(F)(F)F)cc2s1 [Example 77] the EC50 [1] was under 200 nM and the EC50 [2] was under 500 nM.
COc1cc(C(=O)NC[C@](O)(c2cc3c(c(-c4ccc(F)c(Cl)c4)n2)OC[C@]3(C)C(N)=O)C(F)(F)F)cc2cn(C3CC3)nc12 [Example 28] gave an EC50 [1] of under 200 nM and an EC50 [2] of under 500 nM.
Cc1nc2c(OC(F)(F)F)cc(C(=O)NC[C@](O)(c3cc4c(c(-c5ccc(F)cc5)n3)OC[C@]4(C)C(N)=O)C(F)(F)F)cc2s1 [Example 97] was tested, and the EC50 [1] was under 200 nM and the EC50 [2] was over 500 nM.
Work on C[C@]1(C(N)=O)COc2c1cc([C@@](O)(CNC(=O)c1cc(F)c3nn(C(F)F)cc3c1)C(F)(F)F)nc2-c1ccc(F)c(Cl)c1 [Example 45] yielded an EC50 [1] of under 200 nM and an EC50 [2] of under 500 nM.
C[C@]1(C(N)=O)COc2c1cc([C@@](O)(CNC(=O)c1ccc3nn(C(F)F)cc3c1)C(F)(F)F)nc2-c1ccc(F)cc1 [Example 41] was tested, and the EC50 [1] was under 200 nM and the EC50 [2] was under 500 nM.
For COc1cc(C(=O)NC[C@](O)(c2cc3c(c(-c4ccc(F)cc4)n2)OC[C@]3(C)C(N)=O)C(F)(F)F)ccc1OCC1(O)CC1 [Example 134], the EC50 [1] was under 200 nM and the EC50 [2] was over 500 nM.
With Cc1cnc2c(Nc3ccc(C)nn3)cc(C(=O)NC[C@](O)(c3cc4c(c(-c5ccc(F)cc5)n3)OC[C@]4(C)C(N)=O)C(F)(F)F)cc2c1 [Example 113] the EC50 [1] was under 200 nM and the EC50 [2] was under 500 nM.
With COc1cc(C(=O)NC[C@](O)(c2cc3c(c(-c4ccc(F)cc4)n2)OC[C@]3(C)C(N)=O)C(F)(F)F)ccc1OC[C@@H](C)O [Example 138] the EC50 [1] was under 200 nM and the EC50 [2] was over 500 nM.
Compound COc1cc(C(=O)NC[C@](O)(c2cc3c(c(-c4ccc(F)c(Cl)c4)n2)OC[C@]3(C)C(N)=O)C(F)(F)F)cn2cc(C(F)F)nc12 [Example 65] has an EC50 [1] of under 200 nM and an EC50 [2] of over 500 nM.
With COc1cc(C(=O)NC[C@](O)(c2cc3c(c(-c4ccc(F)cc4)n2)OC[C@]3(C)C(N)=O)C(F)(F)F)cc2cc(C)nnc12 [Example 9] the EC50 [1] was under 200 nM and the EC50 [2] was under 500 nM.
COc1cc(C(=O)NC[C@](O)(c2cc3c(c(-c4ccc(F)cc4)n2)OC[C@]3(C)C(N)=O)C(F)(F)F)cc2c1OCO2 [Example 441] gave an EC50 [1] of under 200 nM and an EC50 [2] of over 500 nM.
Compound C[C@]1(C(N)=O)COc2c1cc([C@@](O)(CNC(=O)c1ccc3nc(CO)sc3c1)C(F)(F)F)nc2-c1ccc(F)cc1 [Example 161] has an EC50 [1] of under 200 nM and an EC50 [2] of over 500 nM.
